{
  "source": "patent US5767096A",
  "about": "“Bromotiacumicin compounds” (Abbott Laboratories, priority 1996, dated 1998)",
  "type_in_all_cases": "cell-based",
  "key": {"[1]": {"test_system": "Enterococcus faecium ATCC 8043", "test": "In vitro antibiotic activity (MIC), agar dilution, brain heart infusion agar", "conditions": "~10^4 organisms per spot, 37° C., ~20 hours", "experimental": "(§1) Optical rotations were measured on a Perkin-Elmer Model 241 polarimeter in a 10 cm cell. Fast atom bombardment mass spectra were measured on a Kratos MS-50 mass spectrometer. Ultraviolet spectra were recorded on a Perkin-Elmer Lambda 3B UV-visible spectrophotometer and infrared spectra on a Nicolet model 60SX FT-IR attached to a Nicolet computer. NMR spectra were acquired on either a General Electric GN500 or GN300 spectrometer. […] Rf values reported were acquired on Analtech TLC plates developed with chloroform:methanol (9:1, v:v) and were visualized using ceric sulfate spray reagent. Melting points were determined on a Hoover Unimelt and are reported uncorrected. Minimal inhibitory concentrations were determined by twofold agar dilution. Brain heart infusion agar was used for aerobes and Wilkins-Chalgren agar for anaerobes.\n(§2) For primary screening of compounds of the invention against selected aerobic microorganisms, minimal inhibitory concentrations (MICs) were determined by the following agar dilution method: Series of two-fold dilutions of the test compounds were added to brain heart infusion agar. The agar plates were inoculated with approximately 10^4 organisms per spot of each of the organisms to be tested. These inoculated agar plates were then incubated at 37° C. for approximately 20 hours. The MICs were determined as the minimal concentration of test compound (in […]) that inhibited visible growth."}, "[2]": {"test_system": "Staphylococcus aureus ATCC 6538P", "test": "In vitro antibiotic activity (MIC), agar dilution, brain heart infusion agar", "conditions": "~10^4 organisms per spot, 37° C., ~20 hours", "experimental": "as §1, §2"}, "[3]": {"test_system": "Staphylococcus epidermidis 3519", "test": "In vitro antibiotic activity (MIC), agar dilution, brain heart infusion agar", "conditions": "~10^4 organisms per spot, 37° C., ~20 hours", "experimental": "as §1, §2"}, "[4]": {"test_system": "Streptococcus pyogenes EES61", "test": "In vitro antibiotic activity (MIC), agar dilution, brain heart infusion agar", "conditions": "~10^4 organisms per spot, 37° C., ~20 hours", "experimental": "as §1, §2"}, "[5]": {"test_system": "Escherichia coli JUHL", "test": "In vitro antibiotic activity (MIC), agar dilution, brain heart infusion agar", "conditions": "~10^4 organisms per spot, 37° C., ~20 hours", "experimental": "as §1, §2"}, "[6]": {"test_system": "Clostridium perfringes ATCC 13124", "test": "microbe, parasite or virus in culture", "conditions": "anaerobe, ~10^5 organisms per spot, 37° C., ~48 hours", "experimental": "as §1, with “Fast” for “Optical rotations were measured on a Perkin-Elmer Model 241 polarimeter in a 10 cm cell. Fast”\nas §2, with “anaerobic bacteria such as Clostridium,” for “selected aerobic microorganisms,”, “Wilkins-Chalgren” for “brain heart infusion”, “10^5” for “10^4”, “The” for “These”, “48” for “20”"}, "[7]": {"test_system": "Clostridium difficile 2532", "test": "In vitro antibiotic activity (MIC) against anaerobes, agar dilution, Wilkins-Chalgren agar", "conditions": "anaerobe, ~10^5 organisms per spot, 37° C., ~48 hours", "experimental": "as §1\nas §2, with “anaerobic bacteria such as Clostridium,” for “selected aerobic microorganisms,”, “Wilkins-Chalgren” for “brain heart infusion”, “10^5” for “10^4”, “The” for “These”, “48” for “20”"}, "[8]": {"test_system": "Clostridium difficile ATCC 9689", "test": "In vitro antibiotic activity (MIC) against anaerobes, agar dilution, Wilkins-Chalgren agar", "conditions": "anaerobe, ~10^5 organisms per spot, 37° C., ~48 hours", "experimental": "as §1\nas §2, with “anaerobic bacteria such as Clostridium,” for “selected aerobic microorganisms,”, “Wilkins-Chalgren” for “brain heart infusion”, “10^5” for “10^4”, “The” for “These”, “48” for “20”"}, "[9]": {"test_system": "Clostridium difficile ATCC 17857", "test": "In vitro antibiotic activity (MIC) against anaerobes, agar dilution, Wilkins-Chalgren agar", "conditions": "anaerobe, ~10^5 organisms per spot, 37° C., ~48 hours", "experimental": "as §1\nas §2, with “anaerobic bacteria such as Clostridium,” for “selected aerobic microorganisms,”, “Wilkins-Chalgren” for “brain heart infusion”, “10^5” for “10^4”, “The” for “These”, “48” for “20”"}, "[10]": {"test_system": "Bacteroides fragilis ATCC 25285", "test": "In vitro antibiotic activity (MIC) against anaerobes, agar dilution, Wilkins-Chalgren agar", "conditions": "ATCC25285, anaerobe, ~10^5 organisms per spot, 37° C., ~48 hours", "experimental": "as §1\nas §2, with “anaerobic bacteria such as Clostridium,” for “selected aerobic microorganisms,”, “Wilkins-Chalgren” for “brain heart infusion”, “10^5” for “10^4”, “The” for “These”, “48” for “20”"}, "[11]": {"test_system": "Bacteriodes thetaiotaomicron ATCC 29741", "test": "In vitro antibiotic activity (MIC) against anaerobes, agar dilution, Wilkins-Chalgren agar", "conditions": "anaerobe, ~10^5 organisms per spot, 37° C., ~48 hours", "experimental": "as §1\nas §2, with “anaerobic bacteria such as Clostridium,” for “selected aerobic microorganisms,”, “Wilkins-Chalgren” for “brain heart infusion”, “10^5” for “10^4”, “The” for “These”, “48” for “20”"}, "[12]": {"test_system": "bacterial pathogens", "test": "In vitro activity against bacterial pathogens (summary in words)", "conditions": "from Table 2", "experimental": "Optical rotations were measured on a Perkin-Elmer Model 241 polarimeter in a 10 cm cell. Fast atom bombardment mass spectra were measured on a Kratos MS-50 mass spectrometer. Ultraviolet spectra were recorded on a Perkin-Elmer Lambda 3B UV-visible spectrophotometer and infrared spectra on a Nicolet model 60SX FT-IR attached to a Nicolet computer. NMR spectra were acquired on either a General Electric GN500 or GN300 spectrometer. NMR spectral data are reported in Table 1 (following Example 6 below). Rf values reported were acquired on Analtech TLC plates developed with chloroform:methanol (9:1, v:v) and were visualized using ceric sulfate spray reagent. Melting points were determined on a Hoover Unimelt and are reported uncorrected. Minimal inhibitory concentrations were determined by twofold agar dilution. Brain heart infusion agar was used for aerobes and Wilkins-Chalgren agar for anaerobes.\nFor primary screening of compounds of the invention against selected aerobic microorganisms, minimal inhibitory concentrations (MICs) were determined by the following agar dilution method: Series of two-fold dilutions of the test compounds were added to brain heart infusion agar. […] The MICs were determined as the minimal concentration of test compound (in […]) that inhibited visible growth. […]"}, "[13]": {"conditions": "Enterococcus faecium, ATCC8043, read-out: MIC"}, "[14]": {"conditions": "Staphylococcus aureus, ATCC6538P, read-out: MIC"}, "[15]": {"conditions": "Staphylococcus epidermidis, 3519, read-out: MIC"}, "[16]": {"conditions": "Streptococcus pyogenes, EES61, read-out: MIC"}, "[17]": {"conditions": "Escherichia coli, read-out: MIC"}, "[18]": {"conditions": "Clostridium, ATCC13124, read-out: MIC"}, "[19]": {"conditions": "Clostridioides difficile, 2532, read-out: MIC"}, "[20]": {"conditions": "Clostridioides difficile, ATCC9689, read-out: MIC"}, "[21]": {"conditions": "Clostridioides difficile, ATCC17857, read-out: MIC"}},
  "note": "Where two headings read alike, the source gives them in different places.",
  "data": [
    {"compound": "4'\",6'\"-didechloro-4'\"-bromotiacumicin B [Ex. 5]", "values": [
      {"measurement": "MIC", "setting": "[1]", "value": 12.5, "unit": "µg/mL"},
      {"measurement": "MIC", "setting": "[2]", "value": 6.2, "unit": "µg/mL"},
      {"measurement": "MIC", "setting": "[3]", "value": 12.5, "unit": "µg/mL"},
      {"measurement": "MIC", "setting": "[4]", "value": 25, "unit": "µg/mL"},
      {"measurement": "MIC", "setting": "[5]", "value": "> 200", "unit": "µg/mL"},
      {"measurement": "MIC", "setting": "[6]", "value": "<= 0.06 μg/mL"},
      {"measurement": "MIC", "setting": "[7]", "value": 0.5, "unit": "µg/mL"},
      {"measurement": "MIC", "setting": "[8]", "value": 0.12, "unit": "µg/mL"},
      {"measurement": "MIC", "setting": "[9]", "value": 0.25, "unit": "µg/mL"}
    ]},
    {"compound": "4'\",6'\"-didechloro-4'\"-bromotiacumicin C [Ex. 6]", "values": [
      {"measurement": "MIC", "setting": "[1]", "value": 25, "unit": "µg/mL"},
      {"measurement": "MIC", "setting": "[2]", "value": 50, "unit": "µg/mL"},
      {"measurement": "MIC", "setting": "[3]", "value": 50, "unit": "µg/mL"},
      {"measurement": "MIC", "setting": "[4]", "value": 50, "unit": "µg/mL"},
      {"measurement": "MIC", "setting": "[5]", "value": "> 200", "unit": "µg/mL"},
      {"measurement": "MIC", "setting": "[6]", "value": 0.06, "unit": "µg/mL"},
      {"measurement": "MIC", "setting": "[7]", "value": 2, "unit": "µg/mL"},
      {"measurement": "MIC", "setting": "[8]", "value": 0.5, "unit": "µg/mL"},
      {"measurement": "MIC", "setting": "[9]", "value": 1, "unit": "µg/mL"}
    ]},
    {"compound": "CCc1c(Br)c(O)c(Cl)c(O)c1C(=O)O[C@H]1[C@H](O)[C@H](OC)[C@H](OC/C2=C\\C=C\\C[C@H](O)/C(C)=C/[C@H](CC)[C@@H](O[C@@H]3OC(C)(C)[C@@H](OC(=O)C(C)C)[C@H](O)[C@@H]3O)/C(C)=C/C(C)=C/C[C@@H]([C@@H](C)O)OC2=O)O[C@@H]1C", "note": "[Ex. 3, 6'\"-dechloro-6'\"-bromotiacumicin B]", "values": [
      {"measurement": "MIC", "setting": "[1]; [13]", "value": 6.2, "unit": "µg/mL"},
      {"measurement": "MIC", "setting": "[2]; [14]", "value": 6.2, "unit": "µg/mL"},
      {"measurement": "MIC", "setting": "[3]; [15]", "value": 6.2, "unit": "µg/mL"},
      {"measurement": "MIC", "setting": "[4]; [16]", "value": 6.2, "unit": "µg/mL"},
      {"measurement": "MIC", "setting": "[5]; [17]", "value": "> 200", "unit": "µg/mL"},
      {"measurement": "MIC", "setting": "[6]; [18]", "value": 0.03, "unit": "µg/mL"},
      {"measurement": "MIC", "setting": "[10]", "value": "> 128", "unit": "µg/mL"},
      {"measurement": "MIC", "setting": "[7]; [19]", "value": 0.06, "unit": "µg/mL"},
      {"measurement": "MIC", "setting": "[8]; [20]", "value": 0.06, "unit": "µg/mL"},
      {"measurement": "MIC", "setting": "[9]; [21]", "value": 0.06, "unit": "µg/mL"},
      {"measurement": "MIC", "setting": "[11]", "value": "> 128", "unit": "µg/mL"},
      {"measurement": "potency among compounds of this invention", "setting": "[12]", "value": "the most potent of the compounds of this invention"},
      {"measurement": "potency compared with tiacumicin B", "setting": "[12]", "value": "quite comparable to tiacumicin B"}
    ]},
    {"compound": "CCc1c(Br)c(O)c(Cl)c(O)c1C(=O)O[C@H]1[C@H](O)[C@H](OC)[C@H](OC/C2=C\\C=C\\C[C@H](O)/C(C)=C/[C@H](CC)[C@@H](O[C@@H]3OC(C)(C)[C@@H](OC(=O)C(C)C)[C@H](O)[C@@H]3O)/C(C)=C/C(C)=C/C[C@@H](C(C)=O)OC2=O)O[C@@H]1C", "note": "[Ex. 4, 6'\"-dechloro-6'\"-bromo-18-ketotiacumicin B]", "values": [
      {"measurement": "MIC", "setting": "[1]; [13]", "value": 50, "unit": "µg/mL"},
      {"measurement": "MIC", "setting": "[2]; [14]", "value": 50, "unit": "µg/mL"},
      {"measurement": "MIC", "setting": "[3]; [15]", "value": 100, "unit": "µg/mL"},
      {"measurement": "MIC", "setting": "[4]; [16]", "value": 50, "unit": "µg/mL"},
      {"measurement": "MIC", "setting": "[5]; [17]", "value": "> 200", "unit": "µg/mL"},
      {"measurement": "MIC", "setting": "[6]; [18]", "value": 0.015, "unit": "µg/mL"},
      {"measurement": "MIC", "setting": "[10]", "value": "> 128", "unit": "µg/mL"},
      {"measurement": "MIC", "setting": "[7]; [19]", "value": 1, "unit": "µg/mL"},
      {"measurement": "MIC", "setting": "[8]; [20]", "value": 0.25, "unit": "µg/mL"},
      {"measurement": "MIC", "setting": "[9]; [21]", "value": 0.25, "unit": "µg/mL"},
      {"measurement": "MIC", "setting": "[11]", "value": "> 128", "unit": "µg/mL"}
    ]}
  ]
}
